For 36 compounds, melting point results are on record in patent US7928098B2, “Therapeutic and/or preventive agents for a sleep disorder” (Kyowa Hakko Kirin Co., Ltd., priority 2005, dated 2011).

Take `COc1cc(C(=O)Nc2nc(-c3ccco3)c(C(=O)c3ccccn3)s2)cc(OC)c1OC` [Compound 112, N-[4-(2-Furyl)-5-(pyridin-2-ylcarbonyl)thiazol-2-yl]-3,4,5-trimethoxybenzamide]: the melting point is 172 to 180 °C (dec.).
Next, `N#Cc1cccc(C(=O)Nc2nc(-c3ccco3)c(C(=O)c3ccccn3)s2)c1` [Compound 113, 3-Cyano-N-[4-(2-furyl)-5-(pyridin-2-ylcarbonyl)thiazol-2-yl]benzamide]: 234 to 237 °C; `CC(=O)c1cccc(C(=O)Nc2nc(-c3ccco3)c(C(=O)c3ccccn3)s2)c1` [Compound 115, 3-Acetyl-N-[4-(2-furyl)-5-(pyridin-2-ylcarbonyl)thiazol-2-yl]benzamide]: 168 to 169 °C; `CC(=O)c1ccc(C(=O)Nc2nc(-c3ccco3)c(C(=O)c3ccccn3)s2)cc1` [Compound 116, 4-Acetyl-N-[4-(2-furyl)-5-(pyridin-2-ylcarbonyl)thiazol-2-yl]benzamide]: 204 to 206 °C.
Next, `O=C(Nc1nc(-c2ccco2)c(C(=O)c2ccccn2)s1)c1ccc2c(c1)OCO2` [Compound 117, N-[4-(2-Furyl)-5-(pyridin-2-ylcarbonyl)thiazol-2-yl]-3,4-methylenedioxybenzamide]: 235 to 236 °C; `O=C(Nc1nc(-c2ccco2)c(C(=O)c2ccccn2)s1)c1ccc2c(c1)OCCO2` [Compound 118, N-[4-(2-Furyl)-5-(pyridin-2-ylcarbonyl)thiazol-2-yl]-1,4-benzodioxane-6-carboxamide]: 189 to 191 °C.
Under `O=C(c1ccccn1)c1sc(NC(=O)C2COc3ccccc3O2)nc1-c1ccco1` (stereo not drawn) [Compound 119, N-[4-(2-Furyl)-5-(pyridin-2-ylcarbonyl)thiazol-2-yl]-1,4-benzodioxane-2-carboxamide] stands 103 to 104 °C; under `Cc1cc(C(=O)Nc2nc(-c3ccco3)c(C(=O)c3ccccn3)s2)ccn1` [Compound 120, N-[4-(2-Furyl)-5-(pyridin-2-ylcarbonyl)thiazol-2-yl]-2-methylpyridine-4-carboxamide], 187 to 188 °C.
`O=C(Nc1nc(-c2ccco2)c(C(=O)c2ccccn2)s1)c1ccnc(Cl)c1` [Compound 122, 2-Chloro-N-[4-(2-furyl)-5-(pyridin-2-ylcarbonyl)thiazol-2-yl]pyridine-4-carboxamide] displayed a melting point of 219 to 225 °C.
Next, `O=C(Nc1nc(-c2ccco2)c(C(=O)c2ccccn2)s1)c1ccncc1Cl` [Compound 123, 3-Chloro-N-[4-(2-furyl)-5-(pyridin-2-ylcarbonyl)thiazol-2-yl]pyridine-4-carboxamide]: 206 to 207 °C; `O=C(Nc1nc(-c2ccco2)c(C(=O)c2ccccn2)s1)c1cc(Cl)nc(Cl)c1` [Compound 124, 2,6-Dichloro-N-[4-(2-furyl)-5-(pyridin-2-ylcarbonyl)thiazol-2-yl]pyridine-4-carboxamide]: 254 to 258 °C; `COCCN(C)c1cc(C(=O)Nc2nc(-c3ccco3)c(C(=O)c3ccccn3)s2)ccn1` [Compound 125, N-[4-(2-Furyl)-5-(pyridin-2-ylcarbonyl)thiazol-2-yl]-2-[N-(2-methoxyethyl)-N-methylamino]pyridine-4-carboxamide]: 114 to 117 °C.
The compound `O=C(Nc1nc(-c2ccco2)c(C(=O)c2ccccn2)s1)c1ccnc(N2CCCCC2)c1` [Compound 126, N-[4-(2-Furyl)-5-(pyridin-2-ylcarbonyl)thiazol-2-yl]-2-piperidinopyridine-4-carboxamide] had a melting point of 136 to 141 °C.
As for `O=C(Nc1nc(-c2ccco2)c(C(=O)c2ccccn2)s1)c1ccnc(N2CCOCC2)c1` [Compound 127, N-[4-(2-Furyl)-5-(pyridin-2-ylcarbonyl)thiazol-2-yl]-2-morpholinopyridine-4-carboxamide], the melting point is 216 to 217 °C.
Next, `Cc1ncccc1C(=O)Nc1nc(-c2ccco2)c(C(=O)c2ccccn2)s1` [Compound 129, N-[4-(2-Furyl)-5-(pyridin-2-ylcarbonyl)thiazol-2-yl]-2-methylpyridine-3-carboxamide]: 186 to 187 °C; `Cc1ccc(C(=O)Nc2nc(-c3ccco3)c(C(=O)c3ccccn3)s2)cn1` [Compound 130, N-[4-(2-Furyl)-5-(pyridin-2-ylcarbonyl)thiazol-2-yl]-2-methylpyridine-5-carboxamide]: 210 to 215 °C.
In turn, `Cc1cncc(C(=O)Nc2nc(-c3ccco3)c(C(=O)c3ccccn3)s2)c1` [Compound 131, N-[4-(2-Furyl)-5-(pyridin-2-ylcarbonyl)thiazol-2-yl]-5-methylpyridine-3-carboxamide] showed a melting point of 245 to 248 °C.
Next, `COc1ccc(C(=O)Nc2nc(-c3ccco3)c(C(=O)c3ccccn3)s2)c(OC)n1` [Compound 132, N-[4-(2-Furyl)-5-(pyridin-2-ylcarbonyl)thiazol-2-yl]-2,6-dimethoxypyridine-3-carboxamide]: 201 to 202 °C.
Next, `O=C(Nc1nc(-c2ccco2)c(C(=O)c2ccccn2)s1)c1cncc(Br)c1` [Compound 134, 5-Bromo-N-[4-(2-furyl)-5-(pyridin-2-ylcarbonyl)thiazol-2-yl]pyridine-3-carboxamide]: 259 to 262 °C; `O=C(Nc1nc(-c2ccco2)c(C(=O)c2ccccn2)s1)c1ccnnc1` [Compound 135, N-[4-(2-Furyl)-5-(pyridin-2-ylcarbonyl)thiazol-2-yl]pyridazine-4-carboxamide]: 270 to 274 °C; `O=C(Nc1nc(-c2ccco2)c(C(=O)c2ccccn2)s1)c1cnc(C2CC2)nc1` [Compound 137, 2-Cyclopropyl-N-[4-(2-furyl)-5-(pyridin-2-ylcarbonyl)thiazol-2-yl]pyrimidine-5-carboxamide]: 150 to 154 °C.
The compound `Cc1cnc(C(=O)Nc2nc(-c3ccco3)c(C(=O)c3ccccn3)s2)cn1` [Compound 138, N-[4-(2-Furyl)-5-(pyridin-2-ylcarbonyl)thiazol-2-yl]-5-methylpyrazine-2-carboxamide] yielded a melting point of 208 to 209 °C.
For the compound `O=C(Nc1nc(-c2ccco2)c(C(=O)c2ccccn2)s1)c1cc[nH]c(=O)c1` [Compound 139, N-[4-(2-Furyl)-5-(pyridin-2-ylcarbonyl)thiazol-2-yl]-2-oxo-1,2-dihydropyridine-4-carboxamide], the melting point is 170 to 180 °C (dec.).
Compound `O=C(Nc1nc(-c2ccco2)c(C(=O)c2ccccn2)s1)c1ccn(Cc2ccccc2)c(=O)c1` [Compound 140, 1-Benzyl-N-[4-(2-furyl)-5-(pyridin-2-ylcarbonyl)thiazol-2-yl]-2-oxo-1,2-dihydropyridine-4-carboxamide] yielded a melting point of 269 to 270 °C.
As to `Cn1ccc(C(=O)Nc2nc(-c3ccco3)c(C(=O)c3ccccn3)s2)cc1=O` [Compound 141, N-[4-(2-Furyl)-5-(pyridin-2-ylcarbonyl)thiazol-2-yl]-1-methyl-2-oxo-1,2-dihydropyridine-4-carboxamide], the melting point lay within 280 to 285 °C.
In turn, `O=C(Nc1nc(-c2ccco2)c(C(=O)c2ccccn2)s1)c1ccc(Br)o1` [Compound 143, 5-Bromo-N-[4-(2-furyl)-5-(pyridin-2-ylcarbonyl)thiazol-2-yl]furan-2-carboxamide] displayed a melting point of 211 to 212 °C.
`O=C(Nc1nc(-c2ccco2)c(C(=O)c2ccccn2)s1)c1ccc([N+](=O)[O-])o1` [Compound 144, N-[4-(2-Furyl)-5-(pyridin-2-ylcarbonyl)thiazol-2-yl]-5-nitrofuran-2-carboxamide]: the melting point is 278 to 283 °C (dec.).
In turn, `Cc1ccoc1C(=O)Nc1nc(-c2ccco2)c(C(=O)c2ccccn2)s1` [Compound 145, N-[4-(2-Furyl)-5-(pyridin-2-ylcarbonyl)thiazol-2-yl]-3-methylfuran-2-carboxamide] had a melting point of 174 to 176 °C.
Under `O=C(Nc1nc(-c2ccco2)c(C(=O)c2ccccn2)s1)c1ccoc1` [Compound 146, N-[4-(2-Furyl)-5-(pyridin-2-ylcarbonyl)thiazol-2-yl]furan-3-carboxamide] stands 187 to 189 °C; under `Cc1occc1C(=O)Nc1nc(-c2ccco2)c(C(=O)c2ccccn2)s1` [Compound 147, N-[4-(2-Furyl)-5-(pyridin-2-ylcarbonyl)thiazol-2-yl]-2-methylfuran-3-carboxamide], 183 to 186 °C.
`Cc1cc(C(=O)Nc2nc(-c3ccco3)c(C(=O)c3ccccn3)s2)c(C)o1` [Compound 148, N-[4-(2-Furyl)-5-(pyridin-2-ylcarbonyl)thiazol-2-yl]-2,5-dimethylfuran-3-carboxamide] had a melting point of 195 to 198 °C.
`O=C(Nc1nc(-c2ccco2)c(C(=O)c2ccccn2)s1)c1cccs1` [Compound 149, N-[4-(2-Furyl)-5-(pyridin-2-ylcarbonyl)thiazol-2-yl]-thiophene-2-carboxamide]: the melting point was in the range of 197 to 199 °C.
In the case of `O=C(Nc1nc(-c2ccco2)c(C(=O)c2ccccn2)s1)c1ccno1` [Compound 150, N-[4-(2-Furyl)-5-(pyridin-2-ylcarbonyl)thiazol-2-yl]isoxazole-5-carboxamide], the melting point lay in the range of 223 to 230 °C.
Next, `Cc1cc(C(=O)Nc2nc(-c3ccco3)c(C(=O)c3ccccn3)s2)no1` [Compound 151, N-[4-(2-Furyl)-5-(pyridin-2-ylcarbonyl)thiazol-2-yl]-5-methylisoxazole-3-carboxamide]: 209 to 213 °C; `O=C(Nc1nc(-c2ccco2)c(C(=O)c2ccccn2)s1)c1ccc2snnc2c1` [Compound 152, N-[4-(2-Furyl)-5-(pyridin-2-ylcarbonyl)thiazol-2-yl]-1,2,3-benzothiadiazole-5-carboxamide]: 213 to 218 °C.
Take `Cn1nnc2ccc(C(=O)Nc3nc(-c4ccco4)c(C(=O)c4ccccn4)s3)cc21` [Compound 153, N-[4-(2-Furyl)-5-(pyridin-2-ylcarbonyl)thiazol-2-yl]-1-methyl-1H-benzotriazole-6-carboxamide]: the melting point was in the range of 230 to 231 °C.
